Measurements taken from patent US10532977B2, “Small molecule inhibitors of protein tyrosine phosphatases and uses thereof” (Indiana University Research and Technology Corporation, priority 2015, dated 2020).
Entries after “also recorded” stand apart in the source; their conditions may differ.

Legend:
SHP2 [1] = molecular target: T1, SHP2 (Homo sapiens, UniProt Q06124); assay: SHP2 inhibition, pNPP substrate; format: biochemical; details: for mode of SHP2 inhibition: pNPP as substrate
T1 sequence (Q06124 224-528): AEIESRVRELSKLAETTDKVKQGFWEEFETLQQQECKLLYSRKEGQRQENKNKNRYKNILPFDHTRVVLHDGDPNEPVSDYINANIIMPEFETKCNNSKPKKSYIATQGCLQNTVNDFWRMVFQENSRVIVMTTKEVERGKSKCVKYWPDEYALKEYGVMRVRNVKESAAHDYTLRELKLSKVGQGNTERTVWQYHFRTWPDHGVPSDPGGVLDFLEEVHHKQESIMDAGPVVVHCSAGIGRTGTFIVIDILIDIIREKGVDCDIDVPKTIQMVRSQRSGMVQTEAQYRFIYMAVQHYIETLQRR

SHP2/R362A = SHP2/R362A (Homo sapiens, UniProt Q06124, R362A); assay: SHP2/R362A mutant inhibition, pNPP substrate; format: biochemical; details: vs wild-type SHP2
Experimental: Protein expression and purification. […] These proteins were expressed in E. coli BL21(DE3) and purified with Ni-NTA resin (Qiagen). The SHP2 catalytic domain (residues 262-528) used for crystallization was expressed in E. coli BL21(DE3) and purified by Ni-NTA agarose (Qiagen) followed by sequential chromatography of HiPrep 26 desalting column (GE Healthcare), and cation exchange column packed with SP sepharose (GE Healthcare). Protein purity was determined to be greater than 95% by SDS-PAGE and Coomassie blue staining.
Enzyme kinetics and inhibition studies. The SHP2 phosphatase activity was assayed in 96-well plates using pNPP as a substrate at 25° C. in 50 mM 3,3-dimethylglutarate (DMG) buffer (pH=7.0), containing 1 mM EDTA with an ionic strength of 0.15 M adjusted by NaCl. The FDA-approved drug collection or the SPAA based libraries were screened in a 96-well format at two different compound concentrations (10 and 20 μM for FDA drugs and 10 and 1 μM for the SPAA libraries). […] The amount of product, p-nitrophenol, was determined from the absorbance at 405 nm detected by a Spectra MAX340 microplate spectrophotometer (Molecular Devices) using a molar extinction coefficient of 18,000 M^−1 cm^−1. […] The Michaelis-Menten kinetic parameters kcat and Km were determined from a direct fit of the velocity versus substrate concentration data to Michaelis-Menten equation using SigmaPlot program.

SHP2 [2] = molecular target: SHP2 (Homo sapiens, UniProt Q06124); assay: Covalent adduct formation with SHP2, QTOF ESI-MS / LC-MS; details: pH 7, cefsulodin 3 hours, PVS 10 minutes
Experimental: Characterization of cefsulodin-mediated SHP2 inhibition by Q-TOF ESI-MS, LC-MS, and HPLC. Agilent 6520 Accurate-Mass was used for the Q-TOF ESI-MS studies. Water and acetonitrile (both containing 0.1% formic acid) were used as eluent (80% water, flow 50 μL/min, run time 5 minutes). ESI positive mode was used with mass range from 300 to 1700, the gas temperature was 325° C., and vaporizer temperature was: […] The sample was adjusted to have a concentration at 0.1 mg/mL, the injection volume of each sample was 1 μL. Mass hunter software was used for protein deconvolution data analysis to calculate the molecular weight of the protein.
(§1) Agilent Technologies 6130 quadrupole LC-MS instrument was used for the LC-MS studies. A C18 reserved phase column (phenomenex, 50×4.6 mm) was used as stationary phase, water and methanol (both containing 0.1% formic acid) were used as mobile phase (gradient: 0-100% methanol, flow 0 8 ml/min, run time 15 minutes), and UV absorbance at the fixed wavelength of 254 nm and positive and negative ESI-MS data were recorded. The sample was adjusted to have a concentration at 0.1 mg/mL, and the injection volume of each sample was 0.2 μL. The retention time and corresponding ESI-MS data were used as identity of molecules.

[3] = Stability in buffer solutions by LC-MS; format: physicochemical
Experimental: as §1

[4] = system: PMA-induced ERK1/2 phosphorylation; assay: PMA-induced ERK1/2 phosphorylation, immunoblot; format: cell-based, human
Experimental: (§2) Cell proliferation and immunoblot analysis. Human non-small cell lung carcinoma cell line H1975 was cultured at 37° C. and 5% CO2 in RPMI-1640 (Corning) supplemented with 10% fetal bovine serum (HyClone). Human breast cancer cell line MDA-MB-231 was cultured in DMEM supplemented with 10% fetal bovine serum. For cell proliferation assay, 2˜3×10^3 cells were seeded in each well of 96-well plates. After treating cells with compounds for 2 days, cells were incubated with 50 µg/ml MTT (3-(4,5-Dimethylthiazol-2-yl)-2,5-diphenyltetrazolium bromide) for ˜3-4 hours. Then, the culture medium was removed, DMSO was added to dissolve the formazan crystals. Wells containing only media were used for background correction. The optical density was measured spectrophotometrically at 540 nm. For signaling analysis, cells were serum-starved overnight followed by treatment with vehicle or compounds for 3 hours, and then either left un-stimulated or stimulated with 5 μg/ml EGF or 10 nM PMA (Sigma) for indicated time. Cells were lysed and the lysates were electrophoresed on a 10% polyacrylamide gel, and then transferred to a nitrocellulose membrane, and probed with anti-phospho-ERK1/2 and anti-ERK1/2 (Cell Signaling) antibodies followed by incubation with horseradish peroxidase-conjugated secondary antibodies. […]

SKBR3 cells = assay: SKBR3 cell growth and ERK1/2 in Matrigel; format: cell-based, human; details: 5 days
Experimental: SHP2 inhibitor 2 effects on cell growth in Matrigel. Approximately 300,000 SKBR3 cells were seeded into 150 µL of growth factor reduced Matrigel (BD) that was then covered with 2 mLs of media containing either 20 µL vehicle (DMSO) or the indicated concentrations of compound 2. Cells were then imaged at 24-hour intervals using a NIKON SMZ1500 stereomicroscope. After 5 days the cells were recovered from the Matrigel by the following method. Media was aspirated and cells were washed with 500 µL of cold PBS. 150 µL of RIPA lysis buffer supplemented with ProteCEASE-50. EDTA Free protease inhibitors (GBiosciences) was added to the Matrigel. Cells were scraped into a slurry and instantly frozen using dry ice for 5 minutes. After thawing tubes were spun down at 4° C. for 10 minutes at 14K rpm. Proteins were then resolved by SDS-PAGE and the relative levels of total and phospho-ERK1/2 were detected by immunoblot analysis.

[5] = system: EGF-mediated ERK1/2 phosphorylation; assay: EGF-mediated ERK1/2 phosphorylation, immunoblot, H1975 cells; format: cell-based, human; details: compound 7 at 40 μM
Experimental: as §2

TcPTP = TcPTP (Homo sapiens, UniProt P17706); assay: TcPTP inhibition, pNPP substrate; format: biochemical; details: pH 7
SHP1 = SHP1 (Homo sapiens, UniProt P29350); assay: SHP1 inhibition, pNPP substrate; format: biochemical; details: pNPP at Km, pH 7.0, 25° C.
VHZ = molecular target: T2, VHZ (Homo sapiens, UniProt Q9BVJ7); assay: VHZ inhibition, pNPP substrate; format: biochemical; details: pNPP at Km, pH 7.0, 25° C.
T2 construct: made in house

PTPγ = PTPγ (Homo sapiens, UniProt P23470); assay: PTPγ inhibition, pNPP substrate; format: biochemical; details: pNPP at Km, pH 7.0, 25° C.
PTPσ = PTPσ (Homo sapiens, UniProt Q13332); assay: PTPσ inhibition, pNPP substrate; format: biochemical; details: pH 7
FAP1 = FAP1 (Homo sapiens, UniProt Q12923); assay: FAP1 inhibition, pNPP substrate; format: biochemical; details: pH 7
PTPμ = PTPμ (Homo sapiens, UniProt P28827); assay: PTPμ inhibition, pNPP substrate; format: biochemical, mammalian; details: pNPP at Km, pH 7.0, 25° C.
Ssu72 = molecular target: T3, Ssu72 (Homo sapiens, UniProt Q9NP77); assay: Ssu72 inhibition, pNPP substrate; format: biochemical; details: pH 7
T3 construct: made in house

CD45 = CD45 (Homo sapiens, UniProt P08575); assay: CD45 inhibition, pNPP substrate; format: biochemical; details: pNPP at Km, pH 7.0, 25° C.
PP5 = PP5 (Homo sapiens, UniProt P53041); assay: PP5 inhibition, pNPP substrate; format: biochemical, mammalian; details: pNPP at Km, pH 7.0, 25° C.
LAR = LAR (Homo sapiens, UniProt P10586); assay: LAR inhibition, pNPP substrate; format: biochemical; details: pNPP at Km, pH 7.0, 25° C.
HePTP = HePTP (Homo sapiens, UniProt P35236); assay: HePTP inhibition, pNPP substrate; format: biochemical; details: pNPP at Km, pH 7.0, 25° C.
Meg2 = Meg2 (Homo sapiens, UniProt P43378); assay: Meg2 inhibition, pNPP substrate; format: biochemical; details: pNPP at Km, pH 7.0, 25° C.
PTP1B = PTP1B (Homo sapiens, UniProt P18031); assay: PTP1B inhibition, pNPP substrate; format: biochemical; details: pNPP at Km, pH 7.0, 25° C.
MKP3 = MKP3 (Homo sapiens, UniProt Q16828); assay: MKP3 inhibition, pNPP substrate; format: biochemical; details: pH 7
PTPε = PTPε (Homo sapiens, UniProt P23469); assay: PTPε inhibition, pNPP substrate; format: biochemical, mammalian; details: pNPP at Km, pH 7.0, 25° C.
CDC14A = CDC14A (Homo sapiens, UniProt Q9UNH5); assay: CDC14A inhibition, pNPP substrate; format: biochemical; details: pNPP at Km, pH 7.0, 25° C.
PTPβ = PTPβ (Homo sapiens, UniProt P23467); assay: PTPβ inhibition, pNPP substrate; format: biochemical, mammalian; details: pNPP at Km, pH 7.0, 25° C.
LYP = LYP (Homo sapiens, UniProt Q9Y2R2); assay: LYP inhibition, pNPP substrate; format: biochemical; details: pNPP at Km, pH 7.0, 25° C.
VHR = VHR (Homo sapiens, UniProt P51452); assay: VHR inhibition, pNPP substrate; format: biochemical; details: pNPP at Km, pH 7.0, 25° C.
PTPα = PTPα (Homo sapiens, UniProt P18433); assay: PTPα inhibition, pNPP substrate; format: biochemical; details: pNPP at Km, pH 7.0, 25° C.
PEST = PEST (Homo sapiens, UniProt Q05209); assay: PEST inhibition, pNPP substrate; format: biochemical
LMWPTP = LMWPTP (Homo sapiens, UniProt P24666); assay: biochemical
Laforin = molecular target: T4, Laforin (Homo sapiens, UniProt O95278); assay: Laforin inhibition, pNPP substrate; format: biochemical
T4 sequence (O95278 1-331): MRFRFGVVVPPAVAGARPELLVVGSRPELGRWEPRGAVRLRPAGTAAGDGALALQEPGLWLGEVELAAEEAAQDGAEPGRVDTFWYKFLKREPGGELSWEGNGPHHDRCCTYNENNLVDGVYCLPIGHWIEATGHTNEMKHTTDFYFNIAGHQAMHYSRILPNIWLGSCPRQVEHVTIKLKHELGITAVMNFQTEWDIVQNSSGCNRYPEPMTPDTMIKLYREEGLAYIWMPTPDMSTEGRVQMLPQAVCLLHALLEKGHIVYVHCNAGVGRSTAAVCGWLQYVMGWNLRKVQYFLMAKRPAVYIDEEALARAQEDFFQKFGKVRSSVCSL

T3 sequence (Q9NP77 whole entry): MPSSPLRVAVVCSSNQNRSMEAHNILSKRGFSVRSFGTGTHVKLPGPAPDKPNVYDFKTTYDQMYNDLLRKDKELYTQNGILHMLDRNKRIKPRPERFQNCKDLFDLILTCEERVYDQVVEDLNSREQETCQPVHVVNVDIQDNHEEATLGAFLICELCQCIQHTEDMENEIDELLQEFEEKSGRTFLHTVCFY
CDC14A, sequence (Q9UNH5 whole entry): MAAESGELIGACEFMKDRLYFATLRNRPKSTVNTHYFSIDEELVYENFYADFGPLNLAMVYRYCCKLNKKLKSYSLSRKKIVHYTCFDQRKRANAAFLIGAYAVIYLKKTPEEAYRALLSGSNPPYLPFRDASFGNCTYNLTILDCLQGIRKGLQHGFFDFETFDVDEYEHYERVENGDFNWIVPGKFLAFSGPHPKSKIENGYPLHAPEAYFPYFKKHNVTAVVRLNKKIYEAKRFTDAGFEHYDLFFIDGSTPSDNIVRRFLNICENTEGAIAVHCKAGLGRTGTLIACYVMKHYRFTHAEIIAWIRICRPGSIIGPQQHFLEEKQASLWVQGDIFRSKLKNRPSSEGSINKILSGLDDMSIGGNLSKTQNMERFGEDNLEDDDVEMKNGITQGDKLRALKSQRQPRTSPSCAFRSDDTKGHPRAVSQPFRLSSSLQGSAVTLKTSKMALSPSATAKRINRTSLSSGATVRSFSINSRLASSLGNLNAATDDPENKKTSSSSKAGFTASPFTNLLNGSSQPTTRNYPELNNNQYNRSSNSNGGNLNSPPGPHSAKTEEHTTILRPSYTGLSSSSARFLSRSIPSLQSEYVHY
PTPγ, sequence (P23470 20-1445): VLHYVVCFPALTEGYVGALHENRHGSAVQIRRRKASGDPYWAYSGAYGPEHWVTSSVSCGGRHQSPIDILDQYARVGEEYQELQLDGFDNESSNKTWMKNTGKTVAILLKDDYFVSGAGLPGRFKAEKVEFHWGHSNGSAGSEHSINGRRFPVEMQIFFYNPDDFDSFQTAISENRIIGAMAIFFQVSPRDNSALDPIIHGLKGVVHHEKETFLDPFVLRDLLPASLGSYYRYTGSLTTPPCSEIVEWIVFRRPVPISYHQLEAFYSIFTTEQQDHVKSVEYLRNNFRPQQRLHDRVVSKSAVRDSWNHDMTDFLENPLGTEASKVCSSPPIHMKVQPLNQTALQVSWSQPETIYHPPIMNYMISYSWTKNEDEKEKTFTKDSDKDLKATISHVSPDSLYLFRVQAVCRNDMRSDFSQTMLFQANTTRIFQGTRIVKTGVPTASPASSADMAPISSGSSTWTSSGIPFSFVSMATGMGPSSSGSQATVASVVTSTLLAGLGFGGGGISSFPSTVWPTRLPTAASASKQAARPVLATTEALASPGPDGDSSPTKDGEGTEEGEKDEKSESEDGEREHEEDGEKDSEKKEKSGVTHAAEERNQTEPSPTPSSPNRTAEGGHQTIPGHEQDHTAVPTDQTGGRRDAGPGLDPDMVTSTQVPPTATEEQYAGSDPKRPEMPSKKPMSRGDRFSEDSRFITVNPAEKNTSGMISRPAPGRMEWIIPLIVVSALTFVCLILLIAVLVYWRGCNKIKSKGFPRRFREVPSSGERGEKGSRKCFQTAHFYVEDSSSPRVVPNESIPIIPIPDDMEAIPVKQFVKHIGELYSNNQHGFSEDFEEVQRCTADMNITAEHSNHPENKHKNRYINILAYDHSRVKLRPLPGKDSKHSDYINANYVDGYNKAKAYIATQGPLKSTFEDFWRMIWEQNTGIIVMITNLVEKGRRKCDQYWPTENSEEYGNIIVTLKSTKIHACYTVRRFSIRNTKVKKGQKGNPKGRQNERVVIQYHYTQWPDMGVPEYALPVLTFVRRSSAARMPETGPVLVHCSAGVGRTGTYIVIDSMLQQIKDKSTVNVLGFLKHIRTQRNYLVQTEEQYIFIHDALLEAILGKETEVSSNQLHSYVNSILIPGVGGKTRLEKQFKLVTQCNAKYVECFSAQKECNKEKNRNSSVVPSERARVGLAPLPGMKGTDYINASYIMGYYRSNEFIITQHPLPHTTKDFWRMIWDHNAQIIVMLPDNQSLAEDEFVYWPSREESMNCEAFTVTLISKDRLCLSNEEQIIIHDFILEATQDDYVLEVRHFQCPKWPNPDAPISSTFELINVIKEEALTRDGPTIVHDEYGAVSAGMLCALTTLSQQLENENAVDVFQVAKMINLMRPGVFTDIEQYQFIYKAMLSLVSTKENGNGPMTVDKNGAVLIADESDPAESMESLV
SHP2/R362A, sequence (Q06124 224-528 R362A): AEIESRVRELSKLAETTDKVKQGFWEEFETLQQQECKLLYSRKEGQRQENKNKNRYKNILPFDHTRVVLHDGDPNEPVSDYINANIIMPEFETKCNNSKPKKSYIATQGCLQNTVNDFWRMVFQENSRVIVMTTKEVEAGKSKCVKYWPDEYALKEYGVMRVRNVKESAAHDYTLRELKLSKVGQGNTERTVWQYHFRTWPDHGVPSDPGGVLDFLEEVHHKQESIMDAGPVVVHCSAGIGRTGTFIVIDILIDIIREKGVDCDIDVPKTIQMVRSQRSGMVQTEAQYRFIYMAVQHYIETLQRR
LAR, sequence (P10586 30-1907): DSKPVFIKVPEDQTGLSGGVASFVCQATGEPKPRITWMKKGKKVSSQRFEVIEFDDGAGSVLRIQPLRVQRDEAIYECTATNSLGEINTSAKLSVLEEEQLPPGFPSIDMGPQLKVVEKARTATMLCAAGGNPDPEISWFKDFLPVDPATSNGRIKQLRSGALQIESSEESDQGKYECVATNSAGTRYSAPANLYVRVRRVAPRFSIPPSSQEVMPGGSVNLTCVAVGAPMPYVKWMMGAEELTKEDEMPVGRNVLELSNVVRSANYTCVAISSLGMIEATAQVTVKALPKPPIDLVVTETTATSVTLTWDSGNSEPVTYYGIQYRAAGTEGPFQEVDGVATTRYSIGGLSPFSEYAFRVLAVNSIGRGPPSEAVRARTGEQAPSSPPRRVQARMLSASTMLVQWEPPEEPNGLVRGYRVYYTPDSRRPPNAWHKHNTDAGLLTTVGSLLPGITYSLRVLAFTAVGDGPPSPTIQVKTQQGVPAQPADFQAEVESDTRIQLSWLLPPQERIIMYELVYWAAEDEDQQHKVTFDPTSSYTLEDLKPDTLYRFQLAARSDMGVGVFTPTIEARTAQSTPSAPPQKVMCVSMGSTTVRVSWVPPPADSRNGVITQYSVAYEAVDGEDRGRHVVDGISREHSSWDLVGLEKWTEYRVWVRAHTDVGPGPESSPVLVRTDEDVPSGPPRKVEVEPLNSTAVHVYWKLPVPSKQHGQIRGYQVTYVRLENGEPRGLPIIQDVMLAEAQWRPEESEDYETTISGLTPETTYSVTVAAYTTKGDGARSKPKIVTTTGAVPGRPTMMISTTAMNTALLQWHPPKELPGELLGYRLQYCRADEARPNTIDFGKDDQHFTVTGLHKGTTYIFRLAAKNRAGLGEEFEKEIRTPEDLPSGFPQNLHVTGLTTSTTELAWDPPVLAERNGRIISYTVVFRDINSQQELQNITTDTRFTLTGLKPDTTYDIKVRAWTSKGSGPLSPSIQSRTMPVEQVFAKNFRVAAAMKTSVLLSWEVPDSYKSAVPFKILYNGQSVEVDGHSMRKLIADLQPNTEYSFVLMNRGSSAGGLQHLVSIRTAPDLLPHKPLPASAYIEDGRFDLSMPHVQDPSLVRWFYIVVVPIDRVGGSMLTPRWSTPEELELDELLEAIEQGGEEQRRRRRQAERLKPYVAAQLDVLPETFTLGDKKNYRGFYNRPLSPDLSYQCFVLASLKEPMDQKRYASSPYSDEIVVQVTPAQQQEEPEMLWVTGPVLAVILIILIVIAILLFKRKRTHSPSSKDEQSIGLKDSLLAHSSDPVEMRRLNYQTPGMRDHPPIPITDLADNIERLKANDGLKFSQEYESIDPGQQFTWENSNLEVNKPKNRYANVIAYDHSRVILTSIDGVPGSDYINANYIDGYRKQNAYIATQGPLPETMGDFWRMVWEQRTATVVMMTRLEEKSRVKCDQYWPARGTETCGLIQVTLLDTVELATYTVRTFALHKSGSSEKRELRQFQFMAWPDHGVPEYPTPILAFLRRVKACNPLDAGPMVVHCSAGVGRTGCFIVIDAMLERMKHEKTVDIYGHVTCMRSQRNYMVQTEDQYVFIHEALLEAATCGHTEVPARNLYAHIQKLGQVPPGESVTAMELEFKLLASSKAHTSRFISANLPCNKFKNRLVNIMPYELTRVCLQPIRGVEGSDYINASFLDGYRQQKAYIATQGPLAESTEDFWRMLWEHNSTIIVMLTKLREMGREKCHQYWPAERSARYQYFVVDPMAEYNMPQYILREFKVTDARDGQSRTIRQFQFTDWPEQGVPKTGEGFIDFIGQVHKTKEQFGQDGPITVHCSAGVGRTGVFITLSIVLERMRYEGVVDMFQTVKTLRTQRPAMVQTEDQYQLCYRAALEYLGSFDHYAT
LMWPTP, sequence (P24666 whole entry): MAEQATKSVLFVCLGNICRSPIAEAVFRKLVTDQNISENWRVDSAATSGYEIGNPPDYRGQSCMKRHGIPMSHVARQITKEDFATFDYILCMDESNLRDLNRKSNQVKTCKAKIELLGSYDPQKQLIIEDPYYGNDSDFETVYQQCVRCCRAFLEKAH
TcPTP, sequence (P17706 whole entry): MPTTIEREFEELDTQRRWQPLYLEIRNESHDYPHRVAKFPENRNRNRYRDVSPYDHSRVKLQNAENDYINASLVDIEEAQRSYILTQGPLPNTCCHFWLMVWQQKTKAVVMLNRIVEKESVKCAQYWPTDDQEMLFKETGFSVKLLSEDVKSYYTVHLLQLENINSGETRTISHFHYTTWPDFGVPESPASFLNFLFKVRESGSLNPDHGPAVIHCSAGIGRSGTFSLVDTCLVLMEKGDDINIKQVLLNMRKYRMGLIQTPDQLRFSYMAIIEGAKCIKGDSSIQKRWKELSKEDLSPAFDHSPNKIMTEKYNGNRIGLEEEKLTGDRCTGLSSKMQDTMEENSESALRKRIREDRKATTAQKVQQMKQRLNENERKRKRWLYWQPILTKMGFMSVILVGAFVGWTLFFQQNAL

Compound: NC(=O)c1cc[n+](CC2=C(C(=O)O)N3C(=O)[C@@H](NC(=O)[C@@H](c4ccccc4)S(=O)(=O)[O-])[C@H]3SC2)cc1 [Cefsulodin]
- mode of SHP2 inhibition (SHP2 [1]): competitive inhibitor
- mode of SHP2 inhibition (SHP2 [1]; listed as cefsulodin): competitive and reversible
- increase of IC50 by replacement of R362 with alanine (SHP2/R362A): 3 fold
- covalent adduct formation with SHP2 (SHP2 [2]): no covalent adduct formation; also recorded: not inhibiting SHP2 by covalent modification
- stability in crystallization solution (final pH=7.1) ([3]; 20° C., with SHP2 and DTT): completely degraded within 2 days; also recorded: the majority of cefsulodin was gone after 2 d
- stability in CBTP buffer at pH 9.1 ([3]; 3 h, 6 h, 12 h): degradation was further accelerated; also recorded: cefsulodin was gone after 12 h
- stability in pH 5.8 MES buffer ([3]; 12 h, 1 d, 2 d): degradation of cefsulodin was negligible; also recorded: stable for at least 2 days
- stability in pH 7.4 CBTP buffer ([3]; 12 h, 1 d, 2 d): degradation was obvious; also recorded: cefsulodin concentrations decreased progressively
- stability under inhibition assay conditions ([3]; pH 7 and 25° C., 0 h, 3 h, 24 h and 48 h): no change in cefsulodin

Compound: O=C(Nc1ccc(I)cc1)C(=O)Nc1ccc(NC(=O)C(c2ccccc2)S(=O)(=O)O)cc1 (stereo not shown) [Compound 2, 2-((4-(2-((4-iodophenyl)amino)-2-oxoacetamido)phenyl)amino)-2-oxo-1-phenylethanesulfonic acid]
- PMA-induced ERK1/2 phosphorylation [4]: no effect
- ERK1/2 activity in SKBR3 cells in Matrigel at 20 μM (SKBR3 cells; 20 μM): partial inhibition
- SKBR3 cell growth in Matrigel at 20 μM (SKBR3 cells; 20 μM): partial inhibition
- ERK1/2 activity in SKBR3 cells in Matrigel at 40 μM (SKBR3 cells; 40 μM): barely detectable
- SKBR3 cell growth in Matrigel at 40 μM (SKBR3 cells; 40 μM): almost completely absent
- EGF-mediated ERK1/2 phosphorylation in H1975 cells [5]: reduced EGF-mediated ERK1/2 phosphorylation in a dose-dependent manner; also recorded: decrease the EGF-mediated ERK1/2 phosphorylation in a dose dependent manner

Compound: Cc1c(Br)cc(NC(=O)C(c2ccccc2)S(=O)(=O)O)cc1Br (stereo not shown) [Compound L319M34]
- IC50 (SHP2 [1]; pNPP at Km, pH 7.0, 25° C.): > 200 µM
- IC50 (TcPTP): > 200 µM
- IC50 (SHP1): > 200 µM
- IC50 (VHZ): > 200 µM
- IC50 (PTPγ): > 200 µM
- IC50 (PTPσ): > 200 µM
- IC50 (FAP1): > 200 µM
- IC50 (PTPμ): > 200 µM
- IC50 (Ssu72): > 200 µM
- IC50 (CD45): > 200 µM
- IC50 (PP5): > 200 µM
- IC50 (LAR): > 200 µM
- IC50 (HePTP): > 200 µM
- IC50 (Meg2): > 200 µM
- IC50 (PTP1B): > 200 µM
- IC50 (MKP3): > 200 µM
- IC50 (PTPε): > 200 µM
- IC50 (CDC14A): > 200 µM
- IC50 (PTPβ): > 200 µM
- IC50 (LYP): > 200 µM
- IC50 (VHR): > 200 µM
- IC50 (PTPα): > 200 µM

Compound: O=C(Nc1nnc(-c2ccc(Br)cc2)s1)C(c1ccccc1)S(=O)(=O)O (stereo not shown) [Compound L319M79]
- IC50 (PEST): 26.5 µM
- IC50 (LMWPTP): 23.6 µM
- IC50 (Laforin): 2200 nM
